From patent US8822440B2, “Inhibiting cyclin D polypeptides” (Mayo Foundation for Medical Education and Research, priority 2006, dated 2014)
“Also recorded” adds a separate entry of the source.

Key:
[1] = test system: CCND2 promoter; test: CCND2 promoter-luciferase transactivation assay in NIH3T3 cells with or without c-maf; format: cell-based, mouse; conditions: for identified as putative inhibitor of CCND2 transactivation (screen hit): ~5 μM, hit = 50% or more reduction in luciferase relative to cell viability; for identified as putative inhibitor of CCND2 transactivation (screen hit) / effect on CCND2-luc expression, agent alone: 16 hours; for effect on CCND2-luc expression, agent alone: 5 μM
Procedure: Using this assay, Lopac (n=1280), Prestwick (n=1120), and Spectrum (n=2000) libraries of drugs and natural compounds were screened. In a parallel MTS assay, the effect of each compound on 3T3 viability was determined, allowing exclusion of compounds that caused secondary suppression of CCND2 due to non-specific cytotoxicity. […] These included monensin, patulin, β-lapachone, camptothecin, dihydrogambogic acid, gentian violet, thapsigargin, brefeldin A, pristimerin, and kinetin riboside.
Full-length c-maf cDNA was subcloned into an IRES-GFP MIEV retroviral vector and introduced into NIH3T3 cells by infection. Stable clones expressing GFP and c-maf were selected by flow cytometry and immunoblotting, respectively. The promoter of human cyclin D2 (−894 to −4; Brooks et al., J. Biol. Chem., 271, 9090-9 (1996)), containing c-maf responsive element sequence (MARE), was cloned from DNA from HeLa cells and inserted into the pGLbasic firefly luciferase vector (Promega, Madison, Wis.) immediately upstream of the luciferase gene. This construct was co-transfected with pcDNA3 (containing a neomycin resistance gene) into both NIH3T3 wild type cells and NIH3T3 cells stably over-expressing c-maf-IRES-GFP. Cells stably expressing c-maf, GFP, and luciferase were selected.
(§1) NIH3T3 cells stably expressing c-maf and the CCND2 promoter driving luciferase (13,000 cells per well) were plated in 96-well plates by a Biomek FX liquid handler (Beckman, Fullerton, Calif.). After the cells had adhered, they were treated with aliquots of molecules from LOPAC (Sigma, St. Louis, Mo.), Prestwick (Prestwick Chemical Inc, Illkirch, France) or Spectrum (Microsource Discovery Systems, Gaylordsville, Conn.) libraries of off-patent drugs and chemicals at a final concentration of ˜5 μM and <0.1% DMSO. Cells were incubated with compounds at 37° C. for 16 hours.
Luciferase assay. Luciferase activity was assessed according to the manufacturer's instructions (Promega, Madison, Wis.). Briefly, the cell culture medium was removed using an EMBLA plate washer (Molecular Devices, X) and Glo Lysis buffer (Promega) was added by robot. After a 10-minute incubation, an equal volume of Bright-Glo Luciferase substrate (Promega) was added, and luminescence signal was detected with a 96-well Luminoskan luminescence plate reader (Thermo Labsystem, Waltham, Mass.) using a 5 second integration.
Studies of kinetin riboside using 3T3-D2-luc cells. To examine CCND2 suppression induced by kinetin riboside, the reporter cells were exposed to kinetin riboside in combination with other drugs (all purchased from Sigma, St. Loius, Mo.) that influence CCND2 transcription or inhibit nucleoside transport or phosphorylation. NIH3T3 cells expressing the CCND2 promoter driving luciferase were incubated with kinetin riboside or vehicle control +/− forskolin, 4-(3-butoxy-4-methoxybenzyl)imidazolidin-2-one (BMBI), cantharadin, S-(4-Nitrobenzyl)-6-thioinosine (NBTI), or A-134974, as specified at 5 μM concentration for 16 hours at 37° C. […] Forskolin is a cell-permeable diterpenoid that activates adenylate cyclase resulting in increased cAMP concentration. BMBI (Sigma B8279) is an inhibitor of cAMP phosphodiesterase that also causes accumulation of cAMP. Cantharadin (C7632) is an inhibitor of protein phosphatase 2A and, from the library screen, mediates induction of CCND2. NBTI (Sigma N2255) is a potent adenosine uptake inhibitor, and A-134974 (Sigma A2846) is a selective inhibitor of adenosine kinase.
(§2) In an optimized automated assay, NIH3T3 cells over-expressing c-maf and the human cyclin D2 promoter driving luc were plated in 96-well plates by robot and following adhesion were treated for 16 hours with compounds at a final concentration of ˜5 μM and <0.1% DMSO. As a control, cells were treated with buffer alone. […] Thus, each compound from the library was tested in at least two assays—luciferase for CCND2 activity and MTS for viability. The coefficient of variance (CV) of the assay was <10%.

[2] = test system: HMCL; test: Cell cycle profiling of HMCL by flow cytometry; format: cell-based, human; conditions: Example 1, HMCL
Procedure: Cell cycle profiling. HMCL were incubated with drug or vehicle as indicated, washed and resuspended in 1 mL PBS. Ice cold ethanol was added dropwise to 75% with regular mixing, and suspensions were incubated at −20° C. for 1 hour. Cells were washed again with PBS and resuspended in 0.1 mL RNAse A (100 μg/mL) at room temperature for 5-10 minutes. Propidium iodide (200 μL×100 μg/mL) was added immediately prior to analysis by flow cytometry. Cellular aggregates were excluded using CellQuest Doublet Discriminator Module, and cell cycle profile was determined using ModFit LT Mac 3.1 SP2 (Verity Software House, TopSham, Me.).

[3] = test system: CD138− hematopoietic cells; test: Unsorted myeloma patient bone marrow, flow cytometry: CD138- non-malignant cells; format: cell-based; conditions: for toxicity for normal / non-malignant patient hematopoietic cells: patient bone marrow
Procedure: (§3) Flow cytometry. HMCL were treated as indicated and then washed in cold phosphate-buffered saline (PBS) and resuspended in buffer containing AnnexinV-FITC and propidium iodide (BD Biosciences, San Jose, Calif.) for 15 minutes at room temperature. Cells (10^5) were subsequently diluted and analyzed immediately by flow cytometry (FACScan, BD Biosciences, San Jose, Calif.) using CellQuest software. Patient bone marrow specimens were prepared and analyzed in a similar fashion using AnnexinV-FITC and anti-CD138-PE (BD Biosciences, San Jose, Calif.).
(§4) As mouse embryos that lack any D-cyclins eventually die from hematopoietic failure (Kozar et al., Cell, 118, 477-91 (2004)), the bone marrow might be predicted to be one of the most sensitive non-malignant tissue to be affected by drugs targeting cyclin D expression. Unsorted bone marrow samples from myeloma patients were treated with kinetin riboside to assess the relative cytotoxicity of this drug on malignant versus non-malignant marrow cells. Bone marrow samples were first processed to remove non-nucleated red cells and were then treated for 48 hours with kinetin riboside (5 μM).

[4] = test system: human myeloma cell lines (HMCL); test: HMCL viability / cytotoxicity (MTT, MTS); format: cell-based
Procedure: Subsequent validation studies using selected compounds in human myeloma cell lines (HMCL) confirmed successful suppression of both cyclin D2 and D1 polypeptides. Each of these compounds was then shown to be cytotoxic to a genetically diverse and standardized panel of 14 HMCL in MTT assays: monensin (10-760 nM), camptothecin (5-700 nM), dihydrogambogic acid (250-800 nM), pristimerin (150-500 nM), and kinetin riboside (2.5-20 μM). Cell cycle analysis confirmed induction of G0/G1 phase arrest for most compounds, consistent with cyclin D inhibition.
(§5) Viability assay. The effects of screened compounds on cell viability was assessed by 3-(4,5-dimethyl[…])-5-(3-carboxymethoxyphenyl)-2-(4-sulfophenyl)-2-H-tetrazolium (MTS) assay according to the manufacture's instructions (Progmega, Madison, Wis.). MTS reagent (20 μL/well in 96 well plates) was added to cells, and these were then incubated at 37° C. for 4 hours. Absorbance at 490 nm was determined using a 96-well plate reader.

[5] = test system: CD138+ myeloma cells; test: Unsorted myeloma patient bone marrow, flow cytometry: CD138+ myeloma cells; format: cell-based, human; conditions: unsorted myeloma patient bone marrow samples
Procedure: as §3, §4

[6] = test system: NIH3T3 cells; format: cell-based, mouse; conditions: MTS
Procedure: as §1, §5, §2

`O=[N+]([O-])c1ccc(CSc2ncnc3c2ncn3[C@@H]2O[C@H](CO)[C@@H](O)[C@H]2O)cc1` [NBTI, S-(4-Nitrobenzyl)-6-thioinosine] was tested, and the “effect on kinetin riboside-induced suppression of CCND2” value ([1]; NIH3T3 reporter cells, with kinetin riboside) was “does not block kinetin riboside function”.
In the case of `CC1(C)CCC2=C(O1)c1ccccc1C(=O)C2=O` [β-lapachone, reference compound], the “cell cycle arrest phase” value [2] is reported as “S-phase arrest” and the “identified as putative inhibitor of CCND2 transactivation (screen hit)” value (from here on “identified as putative inhibitor”) [1] is reported as “putative CCND2 inhibitors”.
In the case of `CC[C@@]1([C@@H]2O[C@@H]([C@H]3O[C@@](O)(CO)[C@H](C)C[C@@H]3C)C[C@@H]2C)CC[C@H]([C@]2(C)CC[C@]3(C[C@H](O)[C@@H](C)[C@@H]([C@@H](C)[C@@H](OC)[C@H](C)C(=O)O)O3)O2)O1` [monensin, reference compound], the “toxicity for normal / non-malignant patient hematopoietic cells” value [3] is reported as “almost equal toxicity for normal cells”, the “toxicity for normal / non-malignant patient hematopoietic cells” value ([3]; listed as Monensin) is reported as “excessive non-specific toxicity” and the “cytotoxic concentration across panel of 14 HMCL” value ([4]; human) is reported as 10 to 760 nM. For the same compound, the “identified as putative inhibitor” value [1] was “putative CCND2 inhibitors; also recorded: putative suppressors of CCND2”.
For `CC(C)=CCCC1(C)C=Cc2c(O)c3c(c(CC=C(C)C)c2O1)OC12C(=CC4CC1C(C)(C)OC2(C/C=C(/C)C(=O)O)C4O)C3=O` (centres unmarked) [dihydrogambogic acid], the “activity against CD138+ myeloma cells compared with non malignant hematopoietic cells” value [5] was “selective activity”, the “cytotoxic concentration across panel of 14 HMCL” value ([4]; human) was 250 to 800 nM and the “suppression of CCND2 promoter in absence or presence of c-maf” value ([1]; NIH3T3 CCND2-luc with or without c-maf) was “c-maf independent specific suppression of the CCND2 promoter”. For the same compound, the “identified as putative inhibitor” value [1] was “putative CCND2 inhibitors; also recorded: putative suppressors of CCND2”.
For `CC[C@@]1(O)C[C@H](O[C@H]2C[C@H](N(C)C)[C@H](O)[C@H](C)O2)c2c(cc3c(c2O)C(=O)c2c(O)cccc2C3=O)[C@H]1C(=O)OC` [aklavine], the “identified as putative inhibitor” value [1] was “putative suppressors of CCND2” and the “effect on NIH3T3 viability” value [6] was “excess NIH3T3 cytoxicity”.
`N=C1C=CC(=C(c2ccc(N)cc2)c2ccc(N)cc2)C=C1` [pararosaniline pamoate] was tested, and the “identified as putative inhibitor” value [1] was “putative suppressors of CCND2”.
With `C[C@H]1CCC/C=C/[C@@H]2C[C@H](O)C[C@H]2[C@H](O)/C=C/C(=O)O1` [brefeldin A] the “identified as putative inhibitor” value [1] was “putative CCND2 inhibitors”.
For `CN(C)c1ccc(C(=C2C=CC(=[N+](C)C)C=C2)c2ccc(N(C)C)cc2)cc1` [gentian violet], the “identified as putative inhibitor” value [1] was “putative CCND2 inhibitors; also recorded: putative suppressors of CCND2”.
For `C[C@@]12C(=O)OC(=O)[C@]1(C)[C@H]1CC[C@@H]2O1` [cantharadin], the “effect on CCND2-luc expression, agent alone” value ([1]; NIH3T3 reporter cells) was “marked transactivation”.
`N[C@@H](Cc1ccc(N(CCCl)CCCl)cc1)C(=O)O` [melphalan, reference compound] was tested, and the “effect on non-malignant CD138− marrow cells” value ([3]; 48 hours, kinetin riboside 5 μM) was “killed proportionately more healthy CD138− marrow cells than malignant myeloma cells”.
With `C/C=C(/C)C(=O)O[C@H]1C(C)=C2[C@H]([C@@H]1OC(=O)CCCCCCC)[C@@](C)(OC(C)=O)C[C@H](OC(=O)CCC)[C@@]1(O)[C@H]2OC(=O)[C@@]1(C)O` [thapsigargin] the “identified as putative inhibitor” value [1] was “putative CCND2 inhibitors”.
In the case of `CC[C@@]1(O)C(=O)OCc2c1cc1n(c2=O)Cc2cc3ccccc3nc2-1` [camptothecin, reference compound], the “cell cycle arrest phase” value [2] is reported as “S-phase arrest”, the “cytotoxic concentration across panel of 14 HMCL” value ([4]; MTT assays, 14 HMCL) is reported as 5 to 700 nM and the “identified as putative inhibitor” value [1] is reported as “putative CCND2 inhibitors; also recorded: putative suppressors of CCND2”.
In the case of `CCCCOc1cc(CC2CNC(=O)N2)ccc1OC` (centres unmarked) [BMBI, 4-(3-butoxy-4-methoxybenzyl)imidazolidin-2-one], the “effect on CCND2-luc expression, agent alone” value ([1]; NIH3T3 reporter cells) is reported as “CCND2 transactivation”.
